Data from patent US20060051374A1, “Compositions and methods for mucosal vaccination” (3M Innovative Properties Company, priority 2004, published 2006).

Test system: OT-I cells
Test: Total OT-I cell numbers in lymphoid tissues and percentage in nasal mucosa at Day 7 (Example 1)
Type: in vivo, C57BL/6 mice
Method: An Ovalbumin-IRM1 conjugate was prepared as follows. IRM1 was suspended in dimethyl sulfoxide (DMSO) to 10 mg/ml. Ovalbumin was suspended in phosphate buffered saline (PBS) to 10 mg/ml and the pH adjusted to >10.0 by the addition of NaOH. 500 μL of the ovalbumin solution (5 mg ovalbumin) was mixed with 100 μL of the IRM1 solution (1 mg IRM1) in a single well of a 12-well tissue culture plate. The plate was placed on ice and a long wavelength UV light source was placed directly over the plate as close to the well containing the IRM1/ovalbumin mixture as possible. The mixture was irradiated for 15 minutes. […]
Chicken Ovalbumin-specific CD8^+ T cells (OT-I, The Jackson Laboratories, Bar Harbor, Me.) were labeled with carboxyfluoroscein succinimidyl ester (CFSE, Molecular Probes, Inc., Eugene, Oreg.), a fluorescent dye that stains cells in a stabile manner, and then adoptively transferred into syngenic C57BL/6 mice (Charles River Laboratories, Wilmington, Mass.). […] Cells were then run on a FACSCaliber (Becton, Dickinson, and Co., San Jose, Calif.) and CD8^+SIINFEKL/K^b tetramer^+ T cells were analyzed for CFSE expression.
Separately, total OT-I cell numbers at Day 7 were counted in nasal associated lymphoid tissue (NALT), cervical lymph node (CLN), and spleen (Spl). […] Additionally, the percentage of OT-I cells in the nasal mucosa at determined at Day 7. […]

CCOCc1nc2c(N)nc3ccccc3c2n1CC(C)(C)NC(=O)CCCCCNC(=O)c1ccc(N=[N+]=[N-])cc1O [IRM1, N-[6-({2-[4-amino-2-(ethoxymethyl)-1H-imidazo[4,5-c]quinolin-1-yl]-1,1-dimethylethyl}amino)-6-oxohexyl]-4-azido-2-hydroxybenzamide]
total OT-I cell numbers, intranasal IRM1 plus antigen versus antigen alone (Ovalbumin-IRM1 conjugate intranasal, FIG. 2): greater total OT-I cell numbers at Day 7 than antigen alone | total OT-I cell numbers, intranasal versus intravenous delivery (Ovalbumin-IRM1 conjugate, NALT, CLN, spleen, FIG. 2A-2C): greater total OT-I cell numbers at Day 7 than intravenous delivery in all lymphoid tissues examined
